Values after ≈ are worked out from the molar mass of the structure shown. One block for each molecule: values may come before it.
What was measured:
[1] = Inhibition of DENV RNA-dependent RNA polymerase activity; set-up: species or system Dengue virus
Nonstructural protein 5 [2] = molecular target: T1, Nonstructural protein 5 (Dengue virus, UniProt V5TFZ2); assay: Inhibition of DENV/NS5 RNA-dependent RNA polymerase
[3] = Inhibition of DENV-2 NS5 polymerase incubated for 1 hr by fluorescence based analysis; set-up: species or system dengue virus type 2
[4] = Cytotoxicity against hamster BHK-21 cells assessed as cell growth inhibition measured after 48 hrs by MTT assay; assay type: toxicity, cell-based, Mesocricetus auratus
[5] = Cytotoxicity against human HEK293T cells assessed as reduction in cell viability measured after 48 hrs by MTT assay; assay type: toxicity, cell-based, HEK-293T
[6] = Inhibition of DENV RNA N7 methyltransferase; set-up: species or system Dengue virus
Huh-7 [7] = assay: Cytotoxicity against human Huh-7 cells assessed as reduction in cell viability measured after 48 hrs by MTT assay; assay type: functional
A549 [8] = assay: Cytotoxicity against human A549 cells assessed as reduction in cell viability measured after 48 hrs by MTT assay; assay type: functional
Nonstructural protein 5 [9] = molecular target: T1, Nonstructural protein 5; assay: Inhibition of DENV His-tagged recombinant NS5/RNA-dependent RNA polymerase
[10] = Inhibition of Dengue virus RNA-dependent RNA polymerase in human Huh-7 cells; assay type: cell-based
PBMC = assay: Cytotoxicity against human PBMC cells assessed as reduction in cell viability measured after 48 hrs by Cell-titer glo luminescent assay; assay type: functional
A549 [11] = assay: Cytotoxicity against human A549 cells assessed as reduction in cell viability measured after 48 hrs by Cell-titer glo luminescent assay; assay type: functional
Huh-7 [12] = assay: Cytotoxicity against human Huh-7 cells assessed as reduction in cell viability measured after 48 hrs by Cell-titer glo luminescent assay; assay type: functional
[13] = Cytotoxicity against hamster BHK-21 cells assessed as reduction in cell viability measured after 48 hrs by Cell-titer glo luminescent assay; assay type: toxicity, cell-based, Mesocricetus auratus
Nonstructural protein 5 [14] = molecular target: T1, Nonstructural protein 5; assay: Inhibition of DENV C-terminal histidine-tagged NS5/RNA-dependent RNA polymerase
[15] = Inhibition of Dengue virus 3 nucleoside-2'O-methyltransferase; set-up: species or system dengue virus type 3
[16] = Cytotoxicity against asian tiger mosquito C6/36 cells assessed as reduction in cell viability measured after 24 hrs by MTT assay; assay type: toxicity, cell-based; settings: aedes albopictus
[17] = Cytotoxicity against African green monkey Vero cells assessed as reduction in cell viability measured after 72 hrs by MTT assay; assay type: toxicity, cell-based; settings: chlorocebus sabaeus
dengue virus type 2 = assay: Antiviral activity against Dengue virus 2 infected in African green monkey Vero cells assessed as suppression of viral replication; assay type: functional, organism-based
[18] = Cytotoxicity against hamster BHK-21 cells assessed as reduction in cell viability measured after 42 hrs by MTT assay; assay type: toxicity, cell-based, Mesocricetus auratus
[19] = Inhibition of West Nile virus recombinant N-terminal NS5-methyltransferase
Huh-7 [20] = assay: Cytotoxicity against human Huh-7 cells assessed as reduction in cell viability measured after 48 hrs by Celltiter-glo assay; assay type: functional
[21] = Inhibition of DENV-4 full length NS5/RNA-dependent RNA polymerase in Huh-7 cells; assay type: cell-based, dengue virus type 4
[22] = Cytotoxicity against African green monkey Vero E6 cells assessed as reduction in cell viability measured after 96 hrs by MTT assay; assay type: toxicity, cell-based; settings: chlorocebus sabaeus, Vero E6 (Vero C1008) cells
[23] = Inhibition of DENV3 N-terminal 6-His-tagged RNA-dependent RNA polymerase expressed in Escherichia coli BL21; set-up: species or system dengue virus type 3
[24] = Inhibition of DENV-2 full length His-tagged RNA-dependent RNA polymerase expressed in Escherichia coli Rosetta cells BL21 (DE3) cells incubated for 2 hrs; set-up: species or system dengue virus type 2
[25] = Inhibition of DENV-3 RNA-dependent RNA polymerase expressed in Escherichia coli; set-up: species or system dengue virus type 3
[26] = Cytotoxicity against African green monkey Vero cells assessed as reduction in cell viability measured after 3 to 5 days by Cell titer-glo luminescent assay; assay type: toxicity, cell-based; settings: chlorocebus sabaeus, time 3-5 day
[27] = Inhibition of DENV-4 full length NS5/RNA-dependent RNA polymerase; set-up: species or system dengue virus type 4
[28] = Cytotoxicity against monkey LLC-MK2 cells assessed as reduction in cell viability measured after 48 hrs by MTT assay; assay type: toxicity, cell-based, Macaca mulatta; settings: rhesus monkey
[29] = Cytotoxicity against hamster BHK-21 cells assessed as reduction in cell viability measured after 24 hrs by MTT assay; assay type: toxicity, cell-based, Mesocricetus auratus
Huh-7 [30] = assay: Cytotoxicity against human Huh-7 cells assessed as reduction in cell viability measured after 24 hrs by viral-Tox-glo assay; assay type: functional
Nonstructural protein 5 [31] = molecular target: T1, Nonstructural protein 5; assay: Inhibition of Dengue virus NS5/RNA-dependent RNA polymerase

T1 sequence (V5TFZ2 whole entry): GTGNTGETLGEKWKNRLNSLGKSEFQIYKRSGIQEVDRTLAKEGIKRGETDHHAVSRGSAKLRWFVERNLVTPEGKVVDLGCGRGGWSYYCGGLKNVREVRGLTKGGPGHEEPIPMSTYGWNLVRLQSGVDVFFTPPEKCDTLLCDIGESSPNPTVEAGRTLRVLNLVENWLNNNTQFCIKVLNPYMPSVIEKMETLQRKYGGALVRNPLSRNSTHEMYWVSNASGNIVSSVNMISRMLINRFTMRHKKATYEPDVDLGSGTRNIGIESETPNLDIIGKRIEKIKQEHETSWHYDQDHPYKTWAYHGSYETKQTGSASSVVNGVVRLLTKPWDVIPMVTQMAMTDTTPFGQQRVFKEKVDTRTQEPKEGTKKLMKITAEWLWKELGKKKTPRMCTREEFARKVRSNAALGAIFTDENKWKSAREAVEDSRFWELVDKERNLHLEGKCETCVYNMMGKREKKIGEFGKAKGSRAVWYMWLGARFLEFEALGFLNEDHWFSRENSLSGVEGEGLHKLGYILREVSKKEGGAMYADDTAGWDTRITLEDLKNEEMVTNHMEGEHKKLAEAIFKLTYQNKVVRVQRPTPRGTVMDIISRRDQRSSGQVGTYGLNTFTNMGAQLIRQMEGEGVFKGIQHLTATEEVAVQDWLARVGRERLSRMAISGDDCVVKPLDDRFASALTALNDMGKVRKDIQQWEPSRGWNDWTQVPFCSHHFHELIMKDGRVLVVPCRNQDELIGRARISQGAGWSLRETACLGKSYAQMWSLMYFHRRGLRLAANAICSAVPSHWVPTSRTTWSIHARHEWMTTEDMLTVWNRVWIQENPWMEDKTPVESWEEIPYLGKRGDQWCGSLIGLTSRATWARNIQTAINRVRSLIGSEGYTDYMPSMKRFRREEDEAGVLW

IC50 [1]: 0.1 µM
Compound: C#C[C@@]1(O)[C@H](OC(=O)C(C)C)[C@@H](COC(=O)C(C)C)O[C@H]1n1cc(C(N)=O)c2c(N)ncnc21

IC50 (Nonstructural protein 5 [2]): 2.1 µM
Compound: C[C@@H]1O[C@@H](OC[C@H]2O[C@@H](Oc3c(-c4ccc(O)c(O)c4)oc4cc(O)cc(O)c4c3=O)[C@H](O)[C@@H](O)[C@@H]2O)[C@H](O)[C@H](O)[C@H]1O [RUTIN]

IC50 [3]: 1.9 µM
Compound: COc1cc(C)c(C(=O)NS(=O)(=O)c2cccc3cccnc23)cc1-c1ccc(C#CCO)s1

Compound: C[C@@H]1O[C@@H](Oc2c(-c3ccc(O)c(O)c3)oc3cc(O)cc(O)c3c2=O)[C@H](O)[C@H](O)[C@H]1O [QUERCITRIN]
IC50 (Nonstructural protein 5 [2]): 2.1 µM

Compound: CCC(/C(C)=C/c1cc(OC)c(OC)cc1OC)c1cc(OC)c(OC)cc1OC (stereo not given)
CC50 at 48 h [4]: > 80 µM | CC50 at 48 h [5]: > 80 µM | IC50 [6]: 4.5 µM | CC50 (Huh-7 [7]): > 80 µM | CC50 (A549 [8]): > 80 µM

IC50 (Nonstructural protein 5 [9]): 150 µM
Compound: Nc1cc(C(F)(F)F)ccc1NC(=O)Nc1ccc(S(=O)(=O)Nc2ccc(C(=O)O)cc2)cc1

Compound: C#C[C@@]1(O)[C@H](O)[C@@H](CO)O[C@H]1n1ccc2c(N)ncnc21
IC50 [10]: 0.31 µM | CC50 (PBMC): > 100 µM | CC50 (A549 [11]): > 100 µM | CC50 (Huh-7 [12]): > 100 µM | CC50 at 48 h [13]: > 100 µM

IC50 (Nonstructural protein 5 [14]): 0.33 µM
Compound: O=c1cc(-c2ccc(O)c(-c3c(O)cc4oc(-c5ccc(O)cc5)cc(=O)c4c3O)c2)oc2cc(O)cc(O)c12 [ROBUSTAFLAVONE]

IC50 [15]: 100 µM
Compound: NC(=O)c1ncn([C@@H]2O[C@H](COP(=O)(O)OP(=O)(O)OP(=O)(O)O)[C@@H](O)[C@H]2O)n1 [RTP]

IC50 (Nonstructural protein 5 [2]): 1.9 µM
Compound: O=c1c(O)c(-c2ccc(O[C@@H]3O[C@H](CO)[C@@H](O)[C@H](O)[C@H]3O)c(O)c2)oc2cc(O)cc(O)c12 [SPIRAEOSIDE]

Compound: C=C1CC[C@@H]2[C@]3(C)COC(C)(C)O[C@@H]3CC[C@@]2(C)[C@@H]1C/C=C1/C(=O)OC[C@@H]1Oc1c(Cl)cc(Cl)c2ccc(C)nc12
CC50 at 24 h [16]: 15.6 µg/mL (≈ 26 µM)

IC50 (Nonstructural protein 5 [9]): 150 µM
Compound: Nc1cc(C(F)(F)F)ccc1NC(=O)Nc1cccc(S(=O)(=O)Nc2ccc(C(=O)O)cc2)c1

Compound: C=C1CC[C@@H]2[C@](C)(CO)[C@H](O)CC[C@@]2(C)[C@@H]1C/C=C1/C(=O)OC[C@H]1O [ANDROGRAPHOLIDE]
CC50 at 24 h [16]: 15.6 µg/mL (≈ 44.6 µM)

Compound: CC(C)(O)[C@@H]1CC[C@](C)([C@H]2[C@@H](O)C[C@@]3(C)[C@@H]4C[C@H](O[C@@H]5O[C@H](CO)[C@@H](O)[C@H](O)[C@H]5O)[C@H]5C(C)(C)[C@@H](O[C@@H]6OC[C@@H](O)[C@H](O)[C@H]6O)CC[C@@]56C[C@@]46CC[C@]23C)O1
CC50 at 72 h [17]: > 1000 µg/mL | EC50 (dengue virus type 2): 1.56 µg/mL (≈ 1.99 µM)

IC50 (Nonstructural protein 5 [14]): 0.26 µM
Compound: O=c1cc(-c2ccc(Oc3c(O)cc4oc(-c5ccc(O)cc5)cc(=O)c4c3O)cc2)oc2cc(O)cc(O)c12 [HINOKIFLAVONE]

IC50 [19]: 5.6 µM
Compound: CC1=C(Nc2c(C)cc(O)cc2O)C(=O)C=c2oc3c(c21)C(C)=C(Nc1c(C)cc(O)cc1O)C(=O)C=3
CC50 at 42 h [18]: 117 µM

Compound: CC(C)(O)[C@H]1CC[C@@](C)([C@H]2[C@@H](O)C[C@]3(C)[C@H]4C[C@@H](O)[C@H]5C(C)(C)[C@H](O[C@H]6OC[C@H](O)[C@@H](O)[C@@H]6O[C@H]6O[C@@H](CO)[C@H](O)[C@@H](O)[C@@H]6O)CC[C@]56C[C@]46CC[C@@]23C)O1
CC50 at 72 h [17]: > 1000 µg/mL | EC50 (dengue virus type 2): 1.56 µg/mL (≈ 1.99 µM)

Compound: CC(=O)O[C@H]1[C@H](O[C@H]2CC[C@]34C[C@]35CC[C@]3(C)[C@@H]([C@@]6(C)CC[C@@H](C(C)(C)O)O6)[C@@H](O)C[C@@]3(C)[C@@H]5C[C@H](O[C@@H]3O[C@H](CO)[C@@H](O)[C@H](O)[C@H]3O)[C@H]4C2(C)C)OC[C@@H](O)[C@@H]1O
CC50 at 72 h [17]: > 1000 µg/mL | EC50 (dengue virus type 2): 1.56 µg/mL (≈ 1.89 µM)

Compound: CC1=C(/C=C/C(C)=C/C=C/C(C)=C/C(=O)Nc2ccc(O)cc2)C(C)(C)CCC1 [FENRETINIDE]
CC50 (Huh-7 [20]): ≤ 10 µM | IC50 [21]: 5 µM

IC50 [23]: 1.5 µM
Compound: O=C(N[C@@H](Cc1ccc(O)cc1)C(=O)O)c1cc(-c2ccccc2)c(=O)n2c1sc1ccc(OC3CCCCC3)cc12
CC50 at 96 h [22]: > 100 µM

IC50 [24]: 2.1 µM
Compound: O=C1[C@@H]2Cc3ccccc3N2[C@@H](c2ccco2)N1Nc1ccccc1

IC50 [25]: 287 µM | IC50 [27]: 445 µM
Compound: CC(=O)Oc1ccc2oc(=O)sc2c1
CC50 [26]: 50 µM

IC50 (Nonstructural protein 5 [9]): 150 µM
Compound: CC(=O)N[C@@H](C(=O)O)C(C)(C)SN=O
CC50 at 48 h [28]: 200 µM

Compound: Cc1ccc(C2N(c3ccccc3)CC3=C(CC(C)(C)CC3=O)N2c2ccccc2)cc1 (stereo not given)
CC50 at 24 h [29]: 10 µM

IC50 (Nonstructural protein 5 [2]): 1.7 µM
Compound: O=c1c(O[C@@H]2O[C@@H](CO)[C@H](O)[C@H]2O)c(-c2ccc(O)c(O)c2)oc2cc(O)cc(O)c12 [AVICULARIN]

IC50 [24]: 2.3 µM
Compound: O=C1[C@@H]2Cc3ccccc3N2[C@@H](c2ccc(O)c(O)c2)N1Nc1ccc([N+](=O)[O-])cc1

Compound: CC(C)OC(=O)[C@H](C)N[P@](=O)(OC[C@H]1O[C@@H](n2ccc(=O)[nH]c2=O)[C@](C)(F)[C@@H]1O)Oc1ccccc1 [SOFOSBUVIR]
CC50 (Huh-7 [30]): > 100 µM | IC50 (Nonstructural protein 5 [31]): 14.7 µM

Source: ChEMBL document CHEMBL5370529, “Perspectives on the current antiviral developments towards RNA-dependent RNA polymerase (RdRp) and methyltransferase (MTase) domains of dengue virus non-structural protein 5 (DENV-NS5)” (Eur J Med Chem, 2023)
